The results in this text go back to US9072750B2, “Use of prostaglandins F2Alpha and analogues for the healing of corneal and conjunctival lesions” (priority 2009, dated 2015).

For one series, the system named is Sprague-Dawley rats. As to the kind of experiment: Corneal scraping (deshepithelization) wound healing model in the rat, repeated instillations. Type of series: in vivo.
Series [1] deals with human corneal epithelial (HCE) cells. As to the kind of experiment: Scraping wound closure assay on human corneal epithelial cell monolayer. Format: cell-based. The following applies: 24 h post scraping. The method, then: Brief description of the protocol: human corneal epithelial (HCE) cells (100 000 cells per well) were plated in 6-well plates and cultured until confluence. At confluence the cell monolayer was scraped with a yellow tip, the medium removed and incubated for 30 min with 1/10 dilutions of the different test articles (PBS (phosphate buffer solution), Xalatan® (aqueous solution of latanoprost at 0.005%), 0.02% BAK (benzalkonium chloride aqueous solution), and the Latanoprost Emulsion of the invention (with 0.005% latanoprost). Following the treatment, test article dilutions were removed and replaced by fresh culture medium. The scraping closure was assessed 2 and 24 h post treatment. Immunohistology of proliferation marker (Ki67) was also performed on cells cultured for 24 h post scraping.

Procedure for Sprague-Dawley rats: Brief description of the protocol: 16 male Sprague-Dawley rats weighting 100 to 125 g were randomly assigned to 4 groups (4 rats per group (Gp)): Gp1, Phosphate buffer solution (PBS); Gp2, 0.02% benzalkonium chloride (BAK); Gp3, Xalatan®; Gp4, Latanoprost Emulsion. Following general and local anesthesia with ketamine/xylazine and topical Oxybucaïne, respectively, the upper part of the right eye cornea of each rat was scraped with a surgical scalpel following an application of 50 μl of 50% ethanol solution. The upper corneal and limbal epithelia were removed (at day D0). One drop of Tobrex was instilled immediately after the scraping. 2 and 5 hours post scraping one drop of the different test articles were applied onto the cornea of the right eye. These latter instillations were repeated every day for 4 days, and corneal evaluation with an in vivo confocal microscope (IVCM-HRT) was performed on day 4 after the last instillation. At the end of the experimental procedure (the total duration of the treatment is 5 days; from day D0 to D4), the animals were sacrificed and the eyes harvested to characterize the histological organisation of the treated cornea.

In the case of “benzalkonium chloride [0.02% BAK solution]”, the “corneal opacity / scarification of the cornea” value in the series on Sprague-Dawley rats (day 4 after scraping, repeated instillations, right eye (FIG. 1)) is listed as “scarification of the cornea was dramatic”. Moreover, in the series with Sprague-Dawley rats (rat, in vivo), the “in vivo confocal microscopy (IVCM) of superficial epithelium: scar tissue / hypereflectivity” value was “scar tissue (hypereflectivity)”. Also, in series [1] (1/10 dilutions (FIGS. 7 & 8)), the “closure of the cleft (scraping closure), cell survival and migration” value is on record as “no or only little closure”. Moreover, in series [1] (30 min incubation with 1/10 dilutions (FIG. 9)), the “% of wound closure” value came to 8%.
